Measurements reported in the supplement of paper PMC10307832.

Experiments:
Test in all cases: relative viability (nuclei count vs DMSO), 5 days (fraction); higher = more cells survive
[1] = compound: CCN1CCC(CC1)N2C=C(N=N2)CNC3=CC4=C(C(=CN=C4C(=C3)Cl)C#N)NC5=CC(=C(C=C5)F)Cl [KIN001-266] + CC1(C)CCC(c2ccc(Cl)cc2)=C(CN2CCN(c3ccc(C(=O)NS(=O)(=O)c4ccc(N[C@H](CCN5CCOCC5)CSc5ccccc5)c(S(=O)(=O)C(F)(F)F)c4)cc3)CC2)C1 [Navitoclax] (partner 0.5 µM)
Method in brief: (§1)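 One day after seeding in 1536-well plates, lung cancer cell lines were dosed by pin tool. Dosing was either single-drug or a fixed anchor-drug dose plus five library-drug doses (not always all listed) in √10 steps. After 5 days, nuclei were stained in one fix-and-stain step and counted on 4× images, and relative viability is the nuclei count of treated wells over that of vehicle wells, given as the median of duplicate plates.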

[2] = compound: CCN1CCC(CC1)N2C=C(N=N2)CNC3=CC4=C(C(=CN=C4C(=C3)Cl)C#N)NC5=CC(=C(C=C5)F)Cl [KIN001-266] + O=C(CCCCCCC(=O)Nc1ccccc1)NO [Vorinostat] (partner 1 µM)
Method in brief: as §1

[3] = compound: CCN1CCC(CC1)N2C=C(N=N2)CNC3=CC4=C(C(=CN=C4C(=C3)Cl)C#N)NC5=CC(=C(C=C5)F)Cl [KIN001-266] + C[C@]1(O)C[C@@H](c2nc(-c3ccc4ccc(-c5ccccc5)nc4c3)c3c(N)nccn32)C1 [Linsitinib] (partner 1 µM)
Method in brief: as §1

[4] = compound: CCN1CCC(CC1)N2C=C(N=N2)CNC3=CC4=C(C(=CN=C4C(=C3)Cl)C#N)NC5=CC(=C(C=C5)F)Cl [KIN001-266] + Cc1nc(NC(=O)N2CCC[C@H]2C(N)=O)sc1-c1ccnc(C(C)(C)C(F)(F)F)c1 [Alpelisib] (partner 2 µM)
Method in brief: as §1

Row | Cell Line | relative viability ([1]; first compound 0.08 µM) | relative viability ([1]; first compound 0.253 µM) | relative viability ([1]; first compound 0.8 µM) | relative viability ([1]; first compound 2.53 µM) | relative viability ([1]; first compound 8 µM) | relative viability ([2]; first compound 0.08 µM) | relative viability ([2]; first compound 0.253 µM) | relative viability ([2]; first compound 0.8 µM) | relative viability ([2]; first compound 2.53 µM) | relative viability ([2]; first compound 8 µM) | relative viability ([3]; first compound 0.08 µM) | relative viability ([3]; first compound 0.253 µM) | relative viability ([3]; first compound 0.8 µM) | relative viability ([3]; first compound 2.53 µM) | relative viability ([3]; first compound 8 µM) | relative viability ([4]; first compound 0.08 µM) | relative viability ([4]; first compound 0.253 µM) | relative viability ([4]; first compound 0.8 µM) | relative viability ([4]; first compound 2.53 µM) | relative viability ([4]; first compound 8 µM)
1 | NCI-H1915 | 0.766 | 0.79 | 0.74 | 0.758 | 0.742 | 0.499 | 0.484 | 0.534 | 0.509 | 0.544 | 1.1 | 1.1 | 1.1 | 1.06 | 0.998 | 1.05 | 1.06 | 1.01 | 1.04 | 0.97
2 | NCI-H2009 | 1.14 | 1.13 | 1.16 | 1.07 | 1.1 | 0.724 | 0.736 | 0.676 | 0.653 | 0.516 | 1.23 | 1.12 | 1.2 | 1.16 | 1.05 | 1.21 | 1.17 | 1.19 | 1.03 | 0.983
3 | BEN | 0.064 | 0.0577 | 0.0627 | 0.0713 | 0.0844 | 0.607 | 0.531 | 0.601 | 0.559 | 0.635 | 0.892 | 0.919 | 0.914 | 1.04 | 0.978 | 0.841 | 1.08 | 1.03 | 0.997 | 0.916
